Reference: patent publication US20220280594A1, “APPLICATION OF POLYPEPTIDE OR DERIVATIVE THEREOF” (CHENGDU HUITAI BIOMEDICINE CO., LTD., priority 2019, published 2022)
Ends that are not written are not given here. PEG = not defined here

Columns and labels:
[1] = system: human pancreatic cancer cells (PANC-1); assay: transwell migration assay, PANC-1 cells; format: cell-based; settings: PANC-1 transwell migration, 10 μM, 24 hours; control group 360 ± 60
Protocol: The Transwell chamber system was used in the transwell cell migration experiment. The chamber has an upper layer and a lower layer, which are separated by an artificial semipermeable membrane in the middle. Cells that have migrated through the semi-permeable membrane will attach to the lower surface of the semi-permeable membrane. The migration ability is evaluated by counting the number of cells on the lower surface of the semi-permeable membrane. The number of cells that have migrated is negatively correlated with the inhibitory effect of the drug on the migration ability of the tumor cells. Transwell migration assay was performed as follows: tumor cells were cultured in vitro, cells in logarithmic growth phase were collected, and cell suspension was prepared with fresh serum-free medium at a density of 2-3×10^5 cells/mL. Cells were inoculated, 100 μL/well cell suspension (serum-free medium) in the upper chamber and 600 μL/well complete culture medium in the lower chamber. After incubated in 37° C., 5% CO2 incubator for 4-5 hours, serum-free medium (100 μL/well) was added to the control group, and serum-free medium containing polypeptide or derivative thereof (N1-N54) was added to the upper chamber of the treatment group (100 μL/well), the final concentration of the peptide or derivative thereof in the upper chamber was 10 μM. The cells were incubated continuously for 24 hours, and then fixed with methanol and stained with crystal violet. Images were taken under a microscope and the number of migrated cells was counted with ImageJ.
This example was a transwell cell migration experiment to evaluate the inhibitory effect of the polypeptide or derivative thereof (N1-N54) on the migration ability of human pancreatic cancer cells (PANC-1). The experimental method was as described in Example 3.

[2] = system: human pancreatic cancer cells (PANC-1); assay: transwell invasion assay, PANC-1 cells; format: cell-based; settings: PANC-1 transwell invasion, 10 μM, 24 hours; control group 727 ± 68
Source text: The Transwell chamber system was used in the transwell cell invasion experiment. The chamber has an upper layer and a lower layer, which are separated by an artificial semipermeable membrane in the middle. The upper surface of the semipermeable membrane is coated with a layer of artificial matrigel to simulate extracellular matrix. Cells that have invaded through the matrigel and semi-permeable membrane will attach to the lower surface of the semi-permeable membrane. The invasion ability is evaluated by counting the number of cells on the lower surface of the semi-permeable membrane. The number of cells that have invaded is negatively correlated with the inhibitory effect of the drug on the invasion ability of the tumor cells. Transwell invasion assay was performed as follows: tumor cells were cultured in vitro, cells in logarithmic growth phase were collected, and cell suspension was prepared with fresh serum-free medium at a density of 2-3×10^5 cells/mL. Cells were inoculated, 100 μL/well cell suspension (serum-free medium) in the upper chamber and 600 μL/well complete culture medium in the lower chamber. After incubated in 37° C., 5% CO2 incubator for 4-5 hours, serum-free medium (100 μL/well) was added to the control group, and serum-free medium containing polypeptide or derivative thereof (N1-N54) was added to the upper chamber of the treatment group (100 μL/well), the final concentration of the peptide or derivative thereof in the upper chamber was 10 μM. The cells were incubated continuously for 24 hours, and then fixed with methanol and stained with crystal violet. Images were taken under a microscope and the number of invaded cells was counted with ImageJ.
This example was the transwell cell invasion experiment to evaluate the inhibitory effect of the polypeptide or derivative thereof (N1-N54) on the invasion ability of human pancreatic cancer cells (PANC-1). The experimental method was as described in Example 4.

[3] = system: human lung cancer cells (A549) subcutaneous xenograft; assay: lung cancer subcutaneous xenograft animal model, intravenous injection; format: in vivo, mice (BALB/c-nu/nu); settings: intravenous 60 mg/kg once every other day, 20 days; for Weight of tumor (g) (mean ± SD): control 2.53 ± 0.17; for Volume of tumor (mm^3) (mean ± SD): control 3373.26 ± 581.44
Protocol: Experimental animals: 4-6 weeks old female immunodeficiency mice (BALB/c-nu/nu, Beijing Vital River Laboratory Animal Technology Co., Ltd.).
Subcutaneous xenograft animal model. The number of cells inoculated subcutaneously vin mice was about 2×10^6/200 μL. When the volume of the subcutaneous tumor was greater than 100 mm^3, the mice were randomly divided into groups and subjected to treatment. When the mass volume of the tumors in model control group reached 2000 mm^3 or the animal dies, the treatment ended. The animals were dissected, the tumors were taken out, and the weight and volume of the tumors were measured. During the period of the entire experiment, the mice were observed and the body weight was measured every other day.
The method used in the efficacy test on the lung cancer subcutaneous xenograft animal model was as described in Example 5. The lung cancer cells were the human lung cancer cells (A549), and the route of administration was intravenous injection. This example involved a total of 3 experiments to evaluate N1-N15, N16-N30, and N31-N54 respectively. The experimental procedure, route of administration, dosage and frequency of administration, and detection method were all consistent in the three experiments. The experimental groups were model control group and polypeptide or derivative thereof treatment groups (N1-N15, N16-N30, or N31-N54). The drug dosage of the N1-N54 treatment groups was 60 mg/kg, and the treatment time was 20 days.

[4] = system: human lung squamous carcinoma cells (NCI-H226); assay: scratch assay, migration of NCI-H226 cells; format: cell-based; settings: NCI-H226, 10 μM, 48 hours; control group 65.31 ± 3.19
Protocol: (§1) In the scratch assay, the cell migration rate was negatively correlated with the inhibitory effect of the drug component on tumor cell migration ability. The cell migration inhibition experiment was described as follows: tumor cells were cultured in vitro, cells in logarithmic growth phase were collected and seeded evenly in a 24-well plate at a density of 1-2×10^5 cells/well; the cells were cultured in a cell incubator until a monolayer was formed; a scratch tool was used to make a “-” (straight) scratch on the monolayer of cells; the cells were washed 1-3 times with PBS, and a medium (with 2% fetal bovine serum) containing specific test components was added to the culture. Experimental grouping: PBS control group; polypeptide or derivative thereof treatment group (N1-N54), 10 μM. Three independent parallel wells were set up in each group, and the cells were cultured continuously in a cell incubator for 48 hours. […] At least 3 representative images for each well were taken. ImageJ software was used to count the migration distance of the cells, and the cell migration rate was calculated as: cell migration rate (%)=(width of original scratch−width of current scratch)/width of original scratch×100.
This example was a scratch assay to evaluate the inhibitory effect of the polypeptide or derivative thereof (N1-N54) on the migration ability of human lung squamous carcinoma cells (NCI-H226). The experimental method was as described in Example 2.

[5] = system: human lung cancer cells (95D); assay: scratch assay, migration of 95D cells; format: cell-based; settings: 10 μM, 48 hours, control group 55.3 ± 3.19
Protocol: as §1
This example was a scratch assay to evaluate the inhibitory effect of the polypeptide or derivative thereof (N1-N54) on the migration ability of human lung cancer cells (95D). The experimental method was as described in Example 2.

[6] = system: human thyroid cancer cells (FRO); assay: scratch assay, migration of FRO cells; format: cell-based; settings: 10 μM, 48 hours, control group 60.34 ± 8.32
Protocol: as §1
This example was a scratch assay to evaluate the inhibitory effect of the polypeptide or derivative thereof (N1-N54) on the migration ability of human thyroid cancer cells (FRO). The experimental method was as described in Example 2.

| Substance | Number of cells (mean ± SD, P), migrated cells [1] | Number of cells (mean ± SD, P), invaded cells [2] | Weight of tumor (g) (mean ± SD) [3] | Volume of tumor (mm^3) (mean ± SD) [3] | Migration rate (%) (mean ± SD, P) [4] | Migration rate (%) (mean ± SD, P) [5] | Migration rate (%) (mean ± SD, P) [6] |
| --- | --- | --- | --- | --- | --- | --- | --- |
| N21: SEQ ID NO: 1 with deletion of positions 1-5 and 15-18 and addition of one amino acid at the amino terminal (SLAKENVTQD) | 216 ± 12,*** | 269 ± 28,**** | 0.71 ± 0.22 | 1065.78 ± 432.05 | 13.58 ± 6.67,*** % | 40.02 ± 4.20,** % | 30.45 ± 4.94,* % |
| N22: SEQ ID NO: 1 with substitution A7R, deletion of three amino acids at the amino terminal and of positions 15-18 (RFLRKENVTQD) | 200 ± 18,*** | 220 ± 65,**** | 0.89 ± 0.19 | 1288.08 ± 577.81 | 18.69 ± 5.25,*** % | 38.35 ± 5.04,** % | 42.34 ± 4.98,* % |
| N23: SEQ ID NO: 1 with substitution A7R, deletion of position 11 and of positions 15-18 (YRVRFLRKENTQDAED) | 200 ± 14,*** | 196 ± 26,**** | 0.65 ± 0.17 | 993.11 ± 298.65 | 13.24 ± 8.19,*** % | 30.38 ± 4.68,** % | 34.39 ± 4.10,* % |
| N24: SEQ ID NO: 1 with substitution A7R, deletion of positions 1-2 and of position 18 (VRFLRKENVTQDAED) | 239 ± 24,* | 226 ± 18,**** | 0.81 ± 0.25 | 1099.3 ± 512.53 | 15.74 ± 8.70,*** % | 35.78 ± 4.79,** % | 16.54 ± 3.19,** % |
| N25: SEQ ID NO: 1 with substitution N18R and addition of two amino acids at the carboxyl terminal (YRVRFLAKENVTQDAEDRCT) | 217 ± 31,** | 247 ± 17,**** | 0.69 ± 0.21 | 1169.92 ± 572.47 | 15.03 ± 8.16,*** % | 40.70 ± 3.25,** % | 14.31 ± 2.47,*** % |
| N26: SEQ ID NO: 1 with substitution A15R, addition of one amino acid at the amino terminal and one at the carboxyl terminal (FYRVRFLAKENVTQDREDNC) | 119 ± 17,*** | 231 ± 18,**** | 0.57 ± 0.22 | 1163.91 ± 457.09 | 18.41 ± 7.90,*** % | 37.20 ± 5.94,** % | 11.21 ± 4.01,*** % |
| N27: SEQ ID NO: 1 with addition of one amino acid at the carboxyl terminal and PEG modification at the carboxyl terminal (YRVRFLAKENVTQDAEDNC-{PEG}; reading uncertain) | 143 ± 25,*** | 242 ± 35,**** | 1.14 ± 0.23 | 1402.37 ± 405.66 | 31.19 ± 5.96,*** % | 37.20 ± 6.23,* % | 13.42 ± 3.35,*** % |
| N28: SEQ ID NO: 1 with deletion of positions 1-2 and 18 and PEG modification at the amino terminal ({PEG}-VRFLAKENVTQDAED; reading uncertain) | 148 ± 21,*** | 247 ± 15,**** | 0.91 ± 0.21 | 1286.52 ± 344.21 | 18.08 ± 7.38,*** % | 28.08 ± 3.38,*** % | 8.77 ± 2.85,*** % |
| N29: SEQ ID NO: 1 with deletion of positions 1-5 and 15-18 and PEG modification at the amino terminal ({PEG}-LAKENVTQD; reading uncertain) | 178 ± 31,*** | 213 ± 17,**** | 1 ± 0.17 | 1365.48 ± 435.32 | 40.30 ± 4.81,** % | 30.30 ± 4.81,** % | 5.12 ± 2.67,*** % |
